Measurements as given in article PMC8232238 (Cells, 2021).
Read-outs that look alike come from different tables or passages of the source.

What was measured:
[1] = system: acetylated histone in A549 cells; experiment: Histone acetylation in A549 cells, immunostaining with high content imaging; type: cell-based, human; conditions: 24 h; for Concentration from which histone acetylation was significantly increased: compared to untreated cells
Method: (§1) To confirm the observed activities of the selected test compounds against HDAC6, the acetylation status of tubulin in the human lung cancer cell line A549 was investigated by immunostaining combined with automated high content image analysis (see supplementary material for full details). […] The apparent drop in histone acetylation by both compounds above 10 μM is indicative of a potential cytotoxicity at higher concentrations (data not shown).
(§2) Figure 5 Cell-based assessment of HDAC activity and selectivity. Dose and time-dependency of tubulin and histone acetylation by test compounds. A549 cells were treated with (A,B) different concentrations (0–50 µM) of CF011, KNH019 and tubastatin for 24 h or with (C,D) 1 µM over different time intervals before (A,C) tubulin acetylation or (B,D) histone acetylation were automatically quantified using high content imaging. Data represent the average of four independent experiments with four replicate wells/experiments. The statistical significances of effects compared to the untreated control were analysed using Brown–Forsythe and Welch one-way ANOVA analyses using Graph Pad Prism. The significance was set as * 0.05 > p ≥ 0.01, ** 0.01 > p ≥ 0.002. Error bars represent the Standard Error of Mean (SEM). (E) Representative fluorescence images show tubulin acetylation (yellow), histone acetylation (red) and nuclear counterstain (DAPI, blue) after 24 h of exposure to test compounds. Secondary antibodies were detected using excitation/emission filters for CY3 (excitation: 542/27 nm, emission: 597/45 nm), CY5 (excitation: 632/22 nm, emission: 684/25 nm) and DAPI (excitation: 390/18 nm, emission: 435/48 nm), respectively. […]
(§3) S2.2 Cell Culture, Treatment and Immunostaining:
(§4) A549 cells (ATCC® CCL-185™, In Vitro Technologies Pty. Ltd., Victoria, Australia) were cultured in low glucose Dulbecco’s Modified Eagle Media (DMEM, 1 g/L glucose, 0.584 g/L L-glutamine, 3.7 g/L sodium bicarbonate, 10 % fetal bovine serum) under standard conditions (> 90 % humidity, 37 °C temperature, 5 % CO 2). For experiments, 5,000 cells/ well were seeded in 100 µl serum free DMEM in 384 well plates (µCLEAR®, Greiner) and left to adhere for 24 hours before the treatment. Cells were treated with 100 µl of test compound -containing media for up to 24 hours before cells were fixed with 4 % paraformaldehyde (PFA) solution in PBS (10 minutes at room temperature (RT)) and permeabi lized with 50 µl of 0.5 % Triton X -100 in PBS. Subsequently, cells were blocked in PBST (5% fetal bovine serum, 5% bovine serum albumin, 5% goat serum, 0.1% Tween 20 in PBS) before stained with anti - acetylated tubulin (T7451, Sigma Aldrich; 1:1,000) and an ti-acetylated histone antibody (ab47915, Abcam; 1:1,000) overnight at 4 °C. Subsequently, cells were exposed to secondary antibodies (goat anti-mouse Alexa fluor 594 (Invitrogen; 1:10,000) and goat anti -rabbit Alexa fluor 647 (Invitrogen; 1:10,000) in PBST ) and DAPI solution (Invitrogen; 1:10,000 in PBST) before images were acquired.
(§5) Fluorescence images were acquired (10x magnification, 2 -D format) using the InCell 2200 high content imaging system (V7.3, GE Healthcare life sciences) wi th CY3 (excitation: 542/27 nm, emission: 597/45 nm), CY5 (excitation: 632/22 nm, emission: 684/25 nm) and DAPI (excitation: 390/18 nm, emission:
435/48 nm) filters. […] Data was expressed as % Relative Fluorescence Units (RFU) […]

[2] = biological target: T1, HDAC3 (Homo sapiens, UniProt O15379); conditions: previously reported 4-amino analogues; cited from earlier work
T1 construct: purchased Reaction Biology corporation (contract assay)
T1 sequence (O15379 whole entry): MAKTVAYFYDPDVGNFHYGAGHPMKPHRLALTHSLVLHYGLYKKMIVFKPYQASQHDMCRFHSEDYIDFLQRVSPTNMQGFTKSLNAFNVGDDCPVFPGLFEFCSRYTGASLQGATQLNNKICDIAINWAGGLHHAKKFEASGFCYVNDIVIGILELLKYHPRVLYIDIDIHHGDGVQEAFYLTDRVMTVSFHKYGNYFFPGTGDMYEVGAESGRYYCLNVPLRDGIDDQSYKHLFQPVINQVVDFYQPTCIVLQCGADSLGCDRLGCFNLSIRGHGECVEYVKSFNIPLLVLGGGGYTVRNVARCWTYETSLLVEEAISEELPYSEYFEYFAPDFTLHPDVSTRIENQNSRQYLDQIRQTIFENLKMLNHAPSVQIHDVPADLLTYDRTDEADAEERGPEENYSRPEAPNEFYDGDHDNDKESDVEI
T1 sequence (Q9Y618 395-489 partner limits assumed): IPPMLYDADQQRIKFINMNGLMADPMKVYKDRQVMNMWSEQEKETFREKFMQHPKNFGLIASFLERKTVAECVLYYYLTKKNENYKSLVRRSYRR

[3] = biological target: T2, HDAC1 (Homo sapiens, UniProt Q13547); conditions: previously reported 4-amino analogues; cited from earlier work
T2 construct: purchased Reaction Biology corporation (contract assay)
T2 sequence (Q13547 whole entry): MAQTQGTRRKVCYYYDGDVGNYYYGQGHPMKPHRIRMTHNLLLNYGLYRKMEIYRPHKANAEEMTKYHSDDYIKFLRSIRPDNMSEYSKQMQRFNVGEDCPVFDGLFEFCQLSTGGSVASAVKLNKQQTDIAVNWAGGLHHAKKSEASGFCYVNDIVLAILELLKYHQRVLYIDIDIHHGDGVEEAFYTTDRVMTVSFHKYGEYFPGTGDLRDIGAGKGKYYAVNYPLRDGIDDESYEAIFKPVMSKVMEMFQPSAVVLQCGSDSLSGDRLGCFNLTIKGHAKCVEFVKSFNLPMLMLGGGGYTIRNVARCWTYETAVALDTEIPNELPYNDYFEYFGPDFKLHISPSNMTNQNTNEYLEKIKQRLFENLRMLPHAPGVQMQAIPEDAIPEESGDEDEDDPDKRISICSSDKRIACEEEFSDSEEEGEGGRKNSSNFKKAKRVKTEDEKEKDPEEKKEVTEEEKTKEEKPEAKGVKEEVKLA

[4] = biological target: T3, HDAC8 (Homo sapiens, UniProt Q9BY41); conditions: previously reported 4-amino analogues; cited from earlier work
T3 construct: purchased Reaction Biology corporation (contract assay)
T3 sequence (Q9BY41 1-377): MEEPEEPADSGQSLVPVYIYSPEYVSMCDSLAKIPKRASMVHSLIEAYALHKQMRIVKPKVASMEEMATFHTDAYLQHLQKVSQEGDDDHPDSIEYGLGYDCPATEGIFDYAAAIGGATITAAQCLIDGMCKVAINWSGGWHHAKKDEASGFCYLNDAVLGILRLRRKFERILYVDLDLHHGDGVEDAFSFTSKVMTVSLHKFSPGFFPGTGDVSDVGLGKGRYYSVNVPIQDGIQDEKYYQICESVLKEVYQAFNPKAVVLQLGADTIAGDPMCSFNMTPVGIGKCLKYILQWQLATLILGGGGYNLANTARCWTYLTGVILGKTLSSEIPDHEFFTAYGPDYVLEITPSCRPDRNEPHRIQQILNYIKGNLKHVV

[5] = system: acetylated tubulin in A549 cells; experiment: Tubulin acetylation in A549 cells, immunostaining with high content imaging; type: cell-based, human; conditions: 24 h; for Concentration from which tubulin acetylation was significantly increased: compared to untreated cells
Method: as §1, §2, §3, §4, §5
435/48 nm) filters. Two images/well at predefined positions were automatically acquired with 4 replicate wells for each treatment condition/ experiment. At least 3 independent experiments were conducted for each condition. Acquired images were automatically processed using InCarta software (v1.6, GE Healthcare life sciences). All images were manually checked for ar tefacts. Images with less than 30 cells were excluded from the analysis. Excel and GraphPad Prism was used for statistical analysis and graphical representation. Data was expressed as % Relative Fluorescence Units (RFU) […]

[6] = biological target: T4, HDAC11 (Homo sapiens, UniProt Q96DB2); conditions: previously reported 4-amino analogues; cited from earlier work
T4 construct: purchased Reaction Biology corporation (contract assay)
T4 sequence (Q96DB2 1-347): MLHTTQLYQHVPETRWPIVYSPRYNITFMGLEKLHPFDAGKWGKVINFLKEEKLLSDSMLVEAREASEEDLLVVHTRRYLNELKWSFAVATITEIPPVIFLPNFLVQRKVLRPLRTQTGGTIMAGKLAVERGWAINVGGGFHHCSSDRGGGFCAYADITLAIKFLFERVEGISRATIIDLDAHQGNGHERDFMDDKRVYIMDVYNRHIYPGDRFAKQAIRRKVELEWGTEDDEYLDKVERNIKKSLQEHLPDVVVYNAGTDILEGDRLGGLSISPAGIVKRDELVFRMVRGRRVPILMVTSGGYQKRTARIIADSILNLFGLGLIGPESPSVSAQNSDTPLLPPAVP

[7] = biological target: T2, HDAC1; parameters: method as in PMID 30168823; conditions: Figure 2; cited from earlier work
[8] = biological target: T5, HDAC6 (Homo sapiens, UniProt Q9UBN7); parameters: method as in PMID 30168823; conditions: Figure 2; cited from earlier work
T5 construct: purchased Reaction Biology corporation (contract assay)
T5 sequence (Q9UBN7 1-1215): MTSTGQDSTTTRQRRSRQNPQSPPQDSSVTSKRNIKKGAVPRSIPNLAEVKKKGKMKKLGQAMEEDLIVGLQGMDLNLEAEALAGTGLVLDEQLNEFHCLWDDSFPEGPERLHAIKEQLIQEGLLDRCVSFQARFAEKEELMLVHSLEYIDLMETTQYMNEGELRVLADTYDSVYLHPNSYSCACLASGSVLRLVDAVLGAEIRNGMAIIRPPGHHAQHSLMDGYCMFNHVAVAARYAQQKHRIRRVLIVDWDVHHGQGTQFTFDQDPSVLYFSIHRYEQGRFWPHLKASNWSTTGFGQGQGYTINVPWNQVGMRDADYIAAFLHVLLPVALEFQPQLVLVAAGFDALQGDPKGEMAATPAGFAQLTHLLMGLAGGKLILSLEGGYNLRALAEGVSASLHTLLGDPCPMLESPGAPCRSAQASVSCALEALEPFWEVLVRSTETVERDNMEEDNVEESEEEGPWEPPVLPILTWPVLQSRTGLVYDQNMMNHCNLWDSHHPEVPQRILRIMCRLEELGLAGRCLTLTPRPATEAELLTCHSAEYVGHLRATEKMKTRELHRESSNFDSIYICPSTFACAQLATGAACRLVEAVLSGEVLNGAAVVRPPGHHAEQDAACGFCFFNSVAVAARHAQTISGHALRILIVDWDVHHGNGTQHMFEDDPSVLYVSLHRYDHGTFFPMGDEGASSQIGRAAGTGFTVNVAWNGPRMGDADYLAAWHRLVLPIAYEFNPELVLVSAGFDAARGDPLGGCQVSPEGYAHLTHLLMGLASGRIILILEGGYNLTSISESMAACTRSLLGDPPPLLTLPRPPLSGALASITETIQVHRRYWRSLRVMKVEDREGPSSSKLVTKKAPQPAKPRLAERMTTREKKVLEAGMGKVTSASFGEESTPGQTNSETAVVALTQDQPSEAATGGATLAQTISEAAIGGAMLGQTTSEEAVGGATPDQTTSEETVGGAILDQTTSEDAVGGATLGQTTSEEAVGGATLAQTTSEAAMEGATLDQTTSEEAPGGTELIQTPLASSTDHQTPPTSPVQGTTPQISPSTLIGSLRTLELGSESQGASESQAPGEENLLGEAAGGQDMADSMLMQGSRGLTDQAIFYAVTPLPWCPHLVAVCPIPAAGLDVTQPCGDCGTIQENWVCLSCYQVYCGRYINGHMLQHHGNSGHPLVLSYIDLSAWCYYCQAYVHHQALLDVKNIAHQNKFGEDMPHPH

Row | Compound | Histone acetylation in representative immunostaining images ([1]; 10 µM) | Concentration from which histone acetylation was significantly increased [1] | IC50 [2] [nM] | Selectivity factor (SF) HDAC3 against HDAC6 [2] | Selectivity factor (SF) = HDAC1 IC50/HDAC6 IC50 [3] | Selectivity factor (SF) HDAC8 against HDAC6 [4] | Increase of tubulin acetylation compared to untreated cells (up to) ([5]; 0-50 µM, dose-dependent) [fold] | Tubulin acetylation in representative immunostaining images ([5]; 10 µM) | Concentration from which tubulin acetylation was significantly increased [5] | Selectivity factor (SF) HDAC11 against HDAC6 [6] | IC50 [7] [nM] | Selectivity factor (SF) = HDAC1 IC50/HDAC6 IC50 [7] | IC50 [8] [nM]
1 | O=C(CCCCCN1C(=O)c2cccc3c(NCc4ccccc4)ccc(c23)C1=O)NO [CF011] | strongly induce | 10^−6 mM | 360 ± 0.7 | 103 | 566 | 703 | ~1.5 | strongly induce | 10^−9 mM | 43 | – | – | –
2 | CN1CCc2c(c3ccccc3n2Cc2ccc(C(=O)NO)cc2)C1 [tubastatin] | – | 10^−3 mM | – | – | – | – | – | – | 10^−3 mM | – | – | – | –
3 | COc1cc2c3c(cccc3c1)C(=O)N(Cc1ccc(C(=O)NO)cc1)C2=O [Compound 3] | – | – | – | – | – | – | – | – | – | – | 33 | 412 | 0.08
4 | CCCNc1ccc2c3c(cccc13)C(=O)N(CCCCCC(=O)NO)C2=O [CF010] | – | – | 110 ± 4 | 23 | 123 | 317 | – | – | – | 16 | – | – | –
